Laboratory results as given in patent US8835462B2, “Macrocyclic picolinamides as fungicides” (Dow AgroSciences LLC, priority 2012, dated 2014).
Read-outs that look alike come from different tables or passages of the source.

What was measured:
Assay type in all cases: in vivo
[1] = test system: Mycosphaerella graminicola; Anamorph: Septoria tritici; assay: Leaf blotch of wheat (SEPTTR) fungicidal activity on wheat seedlings; settings: Zymoseptoria tritici
Method: Evaluation of Fungicidal Activity: Leaf Blotch of Wheat (Mycosphaerella Graminicola; Anamorph: Septoria tritici; Bayer Code […]) Technical grades of materials were dissolved in acetone, which were then mixed with nine volumes of water containing 110 ppm Triton X-100. The fungicide solutions were applied onto wheat seedlings using an automated booth sprayer to run-off. All sprayed plants were allowed to air dry prior to further handling. Wheat plants (variety Yuma) were grown from seed in a greenhouse in 50% mineral soil/50% soil-less Metro mix until the first leaf was fully emerged, with 7-10 seedlings per pot. These plants were inoculated with an aqueous spore suspension of Septoria tritici either prior to or after fungicide treatments. After inoculation the plants were kept in 100% relative humidity (one day in a dark dew chamber followed by two to three days in a lighted dew chamber at 20° C.) to permit spores to germinate and infect the leaf. The plants were then transferred to a greenhouse set at 20° C. for disease to develop. When disease symptoms were fully expressed on the 1st leaves of untreated plants, infection levels were assessed on a scale of 0 to 100 percent disease severity. Percent disease control was calculated using the ratio of disease severity on treated plants relative to untreated plants.

[2] = test system: Glomerella lagenarium; Anamorph: Colletotricum lagenarium; assay: Cucumber anthracnose (COLLLA) fungicidal activity; settings: Colletotrichum orbiculare, 24 h, 1 Day Protectant, read-out: Disease Control COLLLA 1DP
Method: Technical grades of materials were dissolved in acetone, which were then mixed with nine volumes of water containing 110 ppm Triton X-100. The fungicide solutions were applied onto wheat seedlings using an automated booth sprayer to run-off. All sprayed plants were allowed to air dry prior to further handling. Wheat plants (variety Yuma) were grown from seed in a greenhouse in 50% mineral soil/50% soil-less Metro mix until the first leaf was fully emerged, with 7-10 seedlings per pot. These plants were inoculated with an aqueous spore suspension of Septoria tritici either prior to or after fungicide treatments. After inoculation the plants were kept in 100% relative humidity (one day in a dark dew chamber followed by two to three days in a lighted dew chamber at 20° C.) to permit spores to germinate and infect the leaf. The plants were then transferred to a greenhouse set at 20° C. for disease to develop. When disease symptoms were fully expressed on the 1st leaves of untreated plants, infection levels were assessed on a scale of 0 to 100 percent disease severity. Percent disease control was calculated using the ratio of disease severity on treated plants relative to untreated plants. Evaluation of Fungicidal Activity: Cucumber Anthracnose (Glomerella Lagenarium; Anamorph: Colletotricum Lagenarium; Bayer Code COLLLA) Cucumber seedlings (variety Bush Pickle) were propagated in soil-less Metro mix, with each pot having one plant, and used in the test when 12 to 14 days old. Test plants were inoculated with an aqueous spore suspension of Colletotricum lagenarium 24 hr after fungicide treatments. After inoculation the plants were kept in a dew room at 22° C. with 100% relative humidity for 48 hr to permit spores to germinate and infect the leaf. The plants were then transferred to a growth room set at 22° C. for disease to develop. Fungicide formulation, application and disease assessment on the sprayed leaves followed the procedures as described in the Example A.

Alternaria solani = assay: Tomato early blight (ALTESO) fungicidal activity; settings: 24 h, 1 Day Protectant, read-out: Disease Control ALTESO 1DP
Method: Technical grades of materials were dissolved in acetone, which were then mixed with nine volumes of water containing 110 ppm Triton X-100. The fungicide solutions were applied onto wheat seedlings using an automated booth sprayer to run-off. All sprayed plants were allowed to air dry prior to further handling. Wheat plants (variety Yuma) were grown from seed in a greenhouse in 50% mineral soil/50% soil-less Metro mix until the first leaf was fully emerged, with 7-10 seedlings per pot. These plants were inoculated with an aqueous spore suspension of Septoria tritici either prior to or after fungicide treatments. After inoculation the plants were kept in 100% relative humidity (one day in a dark dew chamber followed by two to three days in a lighted dew chamber at 20° C.) to permit spores to germinate and infect the leaf. The plants were then transferred to a greenhouse set at 20° C. for disease to develop. When disease symptoms were fully expressed on the 1st leaves of untreated plants, infection levels were assessed on a scale of 0 to 100 percent disease severity. Percent disease control was calculated using the ratio of disease severity on treated plants relative to untreated plants. Evaluation of Fungicidal Activity: Tomato Early Blight (Alternaria Solani; Bayer Code […]) Tomato plants (variety Outdoor girl) were propagated in soil-less Metro mix, with each pot having one plant, and used when 12 to 14 days old. Test plants were inoculated with an aqueous spore suspension of Alternaria solani 24 hr after fungicide treatments. After inoculation the plants were kept in 100% relative humidity (one day in a dark dew chamber followed by two to three days in a lighted dew chamber at 20° C.) to permit spores to germinate and infect the leaf. The plants were then transferred to a growth room at 22° C. for disease to develop. Fungicide formulation, application and disease assessment on the sprayed leaves followed the procedures as described in the Example A.

Leptosphaeria nodorum = assay: Wheat glume blotch (LEPTNO) fungicidal activity; settings: Parastagonospora nodorum, 24 h, 1 Day Protectant, read-out: Disease Control LEPTNO 1DP
Method: Technical grades of materials were dissolved in acetone, which were then mixed with nine volumes of water containing 110 ppm Triton X-100. The fungicide solutions were applied onto wheat seedlings using an automated booth sprayer to run-off. All sprayed plants were allowed to air dry prior to further handling. Wheat plants (variety Yuma) were grown from seed in a greenhouse in 50% mineral soil/50% soil-less Metro mix until the first leaf was fully emerged, with 7-10 seedlings per pot. These plants were inoculated with an aqueous spore suspension of Septoria tritici either prior to or after fungicide treatments. After inoculation the plants were kept in 100% relative humidity (one day in a dark dew chamber followed by two to three days in a lighted dew chamber at 20° C.) to permit spores to germinate and infect the leaf. The plants were then transferred to a greenhouse set at 20° C. for disease to develop. When disease symptoms were fully expressed on the 1st leaves of untreated plants, infection levels were assessed on a scale of 0 to 100 percent disease severity. Percent disease control was calculated using the ratio of disease severity on treated plants relative to untreated plants. Evaluation of Fungicidal Activity: Wheat Glume Blotch (Leptosphaeria Nodorum; Bayer Code […]) Wheat plants (variety Yuma) were grown from seed in a greenhouse in 50% mineral soil/50% soil-less Metro mix until the first leaf was fully emerged, with 7-10 seedlings per pot. These plants were inoculated with an aqueous spore suspension of Leptosphaeria nodorum 24 hr after fungicide treatments. After inoculation the plants were kept in 100% relative humidity (one day in a dark dew chamber followed by two days in a lighted dew chamber at 20° C.) to permit spores to germinate and infect the leaf. The plants were then transferred to a greenhouse set at 20° C. for disease to develop. Fungicide formulation, application and disease assessment followed the procedures as described in the Example A.

[3] = 24 h, 1 Day Protectant, read-out: Disease Control SEPTTR 1 DP
[4] = 72 h, 3 Day Curative, read-out: Disease Control SEPTTR 3 DC

COc1ccnc(C(=O)N[C@H]2COC[C@H](Cc3ccccc3)[C@@H](OCC(C)C)[C@H](C)OC2=O)c1O [Compound 2, N-((3S,7S,8R,9S)-7-benzyl-8-isobutoxy-9-methyl-2-oxo-1,5-dioxonan-3-yl)-3-hydroxy-4-methoxypicolinamide]
pest or weed control at 100 ppm [1, 3]: 80 to 100% | pest or weed control at 100 ppm [1, 4]: 80 to 100%

COc1ccnc(C(=O)N[C@H]2COC[C@H](Cc3ccccc3)[C@@H](OCC(C)C)[C@H](C)OC2=O)c1OCOC(=O)C(C)C [Compound 3]
pest or weed control at 100 ppm [2]: 80 to 100% | pest or weed control at 100 ppm (Alternaria solani): 80 to 100% | pest or weed control at 100 ppm (Leptosphaeria nodorum): 80 to 100% | pest or weed control at 100 ppm [1, 3]: 80 to 100% | pest or weed control at 100 ppm [1, 4]: 80 to 100%

COc1ccnc(C(=O)N[C@H]2COC[C@H](Cc3ccccc3)[C@@H](OCC(C)C)[C@H](C)OC2=O)c1OCOC(=O)C(C)(C)C [Compound 7]
pest or weed control at 100 ppm (Alternaria solani): 80 to 100% | pest or weed control at 100 ppm (Leptosphaeria nodorum): 80 to 100% | pest or weed control at 100 ppm [1, 3]: 80 to 100% | pest or weed control at 100 ppm [1, 4]: 80 to 100%

COc1ccnc(C(=O)N[C@H]2COC[C@H](Cc3ccccc3)[C@@H](OCC(C)C)[C@H](C)OC2=O)c1OCOC(C)=O [Compound 8, (2-((3S,7S,8R,9S)-7-benzyl-8-isobutoxy-9-methyl-2-oxo-1,5-dioxonan-3-ylcarbamoyl)-4-methoxypyridin-3-yloxy)methyl acetate]
pest or weed control at 100 ppm [2]: 80 to 100% | pest or weed control at 100 ppm (Alternaria solani): 80 to 100% | pest or weed control at 100 ppm (Leptosphaeria nodorum): 80 to 100% | pest or weed control at 100 ppm [1, 3]: 80 to 100% | pest or weed control at 100 ppm [1, 4]: 80 to 100%

COc1ccnc(C(=O)N[C@H]2COC[C@H](Cc3ccccc3)[C@@H](OCC(C)C)[C@H](C)OC2=O)c1OC(C)=O [Compound 9, 2-(((3S,7S,8R,9S)-7-benzyl-8-isobutoxy-9-methyl-2-oxo-1,5-dioxonan-3-yl)carbamoyl)-4-methoxypyridin-3-yl acetate]
pest or weed control at 100 ppm (Alternaria solani): 80 to 100% | pest or weed control at 100 ppm (Leptosphaeria nodorum): 80 to 100% | pest or weed control at 100 ppm [1, 3]: 80 to 100% | pest or weed control at 100 ppm [1, 4]: 80 to 100%

COc1ccnc(C(=O)N[C@H]2COC[C@H](Cc3ccccc3)[C@@H](OCC(C)C)[C@H](C)OC2=O)c1OC(=O)OC(C)C [Compound 10, 2-(((3S,7S,8R,9S)-7-benzyl-8-isobutoxy-9-methyl-2-oxo-1,5-dioxonan-3-yl)carbamoyl)-4-methoxypyridin-3-yl isopropyl carbonate]
pest or weed control at 100 ppm (Alternaria solani): 0 to 80% | pest or weed control at 100 ppm (Leptosphaeria nodorum): 80 to 100% | pest or weed control at 100 ppm [1, 3]: 80 to 100% | pest or weed control at 100 ppm [1, 4]: 80 to 100%

COc1ccnc(C(=O)N[C@H]2COC[C@H](Cc3ccccc3)[C@@H](OCCC(=O)N(C)C)[C@H](C)OC2=O)c1OCOC(C)=O [Compound 15]
pest or weed control at 100 ppm [2]: 0 to 80% | pest or weed control at 100 ppm (Alternaria solani): 0 to 80% | pest or weed control at 100 ppm (Leptosphaeria nodorum): 0 to 80% | pest or weed control at 100 ppm [1, 3]: 0 to 80% | pest or weed control at 100 ppm [1, 4]: 0 to 80%

COCCCO[C@@H]1[C@@H](Cc2ccccc2)COC[C@H](NC(=O)c2nccc(OC)c2OCOC(C)=O)C(=O)O[C@H]1C [Compound 16]
pest or weed control at 100 ppm [2]: 80 to 100% | pest or weed control at 100 ppm (Alternaria solani): 80 to 100% | pest or weed control at 100 ppm (Leptosphaeria nodorum): 80 to 100% | pest or weed control at 100 ppm [1, 3]: 80 to 100% | pest or weed control at 100 ppm [1, 4]: 80 to 100%

CCCO[C@@H]1[C@@H](Cc2ccccc2)COC[C@H](NC(=O)c2nccc(OC)c2OCOC(C)=O)C(=O)O[C@H]1C [Compound 22]
pest or weed control at 100 ppm [2]: 80 to 100% | pest or weed control at 100 ppm (Alternaria solani): 80 to 100% | pest or weed control at 100 ppm (Leptosphaeria nodorum): 80 to 100% | pest or weed control at 100 ppm [1, 3]: 80 to 100% | pest or weed control at 100 ppm [1, 4]: 80 to 100%

COc1ccnc(C(=O)N[C@H]2COC[C@H](Cc3ccccc3)[C@@H](OCC(F)F)[C@H](C)OC2=O)c1OCOC(C)=O [Compound 44]
pest or weed control at 100 ppm (Alternaria solani): 0 to 80% | pest or weed control at 100 ppm (Leptosphaeria nodorum): 80 to 100% | pest or weed control at 100 ppm [1, 3]: 80 to 100% | pest or weed control at 100 ppm [1, 4]: 80 to 100%

COc1ccnc(C(=O)N[C@H]2COC[C@H](Cc3ccccc3)[C@@H](OCCC(C)OC)[C@H](C)OC2=O)c1OCOC(C)=O (some centres unmarked) [Compound 46]
pest or weed control at 100 ppm (Alternaria solani): 0 to 80% | pest or weed control at 100 ppm (Leptosphaeria nodorum): 80 to 100% | pest or weed control at 100 ppm [1, 3]: 80 to 100% | pest or weed control at 100 ppm [1, 4]: 80 to 100%
